The values below come from PMC10791743, “Selective CK1α degraders exert antiproliferative activity against a broad range of human cancer cell lines” (Nature Communications, 2024).

One data set concerns the target T1, IKZF2 (Homo sapiens, UniProt Q96SW2+Q9UKS7).
T1 construct: endogenous in cells; host or cells: MOLM-13
Nature of the data set: IKZF2 immunoblotting in MOLM-13 cells. It is filed as cell-based. The procedure:
We further tested the specificity of SJ3149 considering that previously reported CK1α degraders also lead to degradation of IKZF2[26]. Even though there was a negligible change in IKZF2 protein level in our proteomics studies, we sought to confirm this observation by immunoblotting. In a similar experiment to those shown in Fig. 2b, MOLM-13 cells were treated with SJ3149 for 4 h at increasing concentrations ranging from 1 nM to 10 µM and analyzed by immunoblotting to quantify IKZF2 and CK1α proteins. While at 4 nM concentration SJ3149 induced 50% degradation of CK1α protein, IKZF2 levels were reduced by only ~40% at the highest dose (10 μM), confirming the selectivity of SJ3149 for CK1α over IKZF2 (Supplementary Fig. 6d). These collective data support the claim that CK1α degradation is responsible for the observed cellular phenotypes induced by SJ3149 treatment.
(§1) Frozen pellets of ~1 million cells were lysed in 150 µl of SDS lysis buffer (60 mM Tris/HCl pH 7, 10% glycerol, 2% SDS, 5% beta-mercaptoethanol, 0.02% bromophenol blue, 0.5% protease and phosphatase inhibitor cocktail (Sigma Aldrich)). When cells were resuspended, samples were heated for 3 min at 99 °C then put on ice. Samples were then fragmented by sonication for 10 0.5-s pulses (550 Sonic Dismembrator, Fisher Scientific) and heated again at 99 °C for 2 min. 15 μl of each sample was added to the wells of a 4–20% polyacrylamide gel (Bio-Rad). A mixture of 2 μl of Precision Plus Protein Unstained Standards and 2 μl of Precision Plus Protein All Blue Standards (Bio-Rad) was used for the size marker. After electrophoresis, gels were transferred to nitrocellulose membrane using the Bio-Rad Trans-Blot Turbo system on the mixed molecular weight setting. Membranes were blocked for 1 h in Li-Cor Intercept Blocking Buffer then probed overnight at 4 °C with primary antibody, at 1:1000 dilution or 1:2000 dilution for actin, in Li-Cor Intercept Antibody Diluent. The following morning, membranes were washed three times for 5 min with TBS + 0.05% Tween-20, probed with fluorescent secondary antibodies (goat anti-rabbit IRDye 800CW and goat anti-mouse IRDye 680RD, Li-Cor) for 1 h at room temperature in the dark at 1:10,000 dilution, and washed again 3 times. Blots were imaged with the Li-Cor Odyssey CLx and analyzed using Image Studio Version 5.2.
Primary antibodies used: rabbit anti-CK1α, ab206652, clone EPR19824, Abcam rabbit anti-p21, 2947S, clone 12D1, Cell Signaling Technology rabbit anti-Helios (IKZF2), 42427, clone D8W4X, Cell Signaling Technology mouse anti-beta actin, 3700S, clone 8H10D10, Cell Signaling Technology

The next data set can be described thus: Aqueous solubility assay. It is filed as physicochemical. Conditions: DPBS buffer. The procedure: page 30: ADME Methods Aqueous solubility assay: Solubility assays were conducted using a Biomek FX lab automation workstation (Beckman Coulter, Inc., Fullerton, CA) and μSOL Evolution software (pION Inc., Woburn, MA). In a 96-well microplate (Cat. No: 3363, Corning Incorporated, Salt Lake, UT), 10 μL of a 10 mM test compound stock in DMSO was added to 190 μL 1-propanol (Thermo Scientific, spectroscopy, Cat. No: 434360010, Fair Lawn, NJ) to create a reference stock plate. From this reference stock plate, 5 μL solutions were mixed with 70 μL 1-propanol and 75 μL Dulbecco's Phosphate Buffered Saline (DPBS, 1X, GibcoTM, Cat. No: 14190-144, Thermo Fisher Scientifics, Waltham, MA) to generate the reference plate (high sensitivity UV plate, Cat. No: 110286, pION Inc., Woburn, MA). In a 96-well storage plate (Cat. No: 201276-100, Agilent, Santa Clara, CA), 6 μL of a 10 mM test compound stock was added to 600 μL buffer, mixed, sealed, and incubated at room temperature for 18 hours. […] UV spectra of the reference and sample plates were then read, and calculations based on the area under the curve (AUC) of the UV spectra were performed using μSOL Evolution software. […] The medium in the wells was changed every other day, and the trans epithelial electrical resistance (TEER) value was measured

For the next data set, the target named is T2, CK1α G40N (Homo sapiens, UniProt P48729, G40N).
T2 construct: host or cells: MOLM-13, lentiviral transduction, puromycin selected
Put plainly: Immunoblot of transduced MOLM-13 cells (FLAG-CK1α WT / G40N). It is filed as cell-based. Conditions: 1 μM, 4 h. The procedure: To evaluate the contribution of the CK1α degradation in SJ3149-mediated cytotoxicity, we utilized the degradation-resistant mutant CK1α G40N[41]. MOLM-13 cells were transduced with lentivirus to overexpress FLAG-tagged wild type CK1α or the G40N mutant, which removes the essential glycine in the CK1α degron G-loop.
as §1, with “Membranes were blocked for 1 h in Li-Cor Intercept Blocking Buffer then probed overnight at 4 °C with primary antibody, at 1:1000 dilution or 1:2000 dilution for actin, in Li-Cor Intercept Antibody Diluent. The following morning, membranes were washed three times for 5 min with TBS + 0.05% Tween-20, probed with fluorescent secondary antibodies (goat anti-rabbit IRDye 800CW and goat anti-mouse IRDye 680RD, Li-Cor) for 1 h at room temperature in the dark at 1:10,000 dilution, and washed again 3 times.” left out, “5.2. […]” for “5.2.”

[1] abbreviates: western blot quantification, relative to DMSO.

Each structure is given as a SMILES string. Values after ≈ are worked out from the molar mass of the structure shown. Values joined by “and” are separate entries in the source; they are usually repeats but may differ in a detail not shown here. Equal entries are not always repeated.

The solubility is the dissolved amount per volume that the medium holds. High values mean a readily soluble substance, low ones a poorly soluble substance.

T1 sequence (Q9UKS7 whole entry): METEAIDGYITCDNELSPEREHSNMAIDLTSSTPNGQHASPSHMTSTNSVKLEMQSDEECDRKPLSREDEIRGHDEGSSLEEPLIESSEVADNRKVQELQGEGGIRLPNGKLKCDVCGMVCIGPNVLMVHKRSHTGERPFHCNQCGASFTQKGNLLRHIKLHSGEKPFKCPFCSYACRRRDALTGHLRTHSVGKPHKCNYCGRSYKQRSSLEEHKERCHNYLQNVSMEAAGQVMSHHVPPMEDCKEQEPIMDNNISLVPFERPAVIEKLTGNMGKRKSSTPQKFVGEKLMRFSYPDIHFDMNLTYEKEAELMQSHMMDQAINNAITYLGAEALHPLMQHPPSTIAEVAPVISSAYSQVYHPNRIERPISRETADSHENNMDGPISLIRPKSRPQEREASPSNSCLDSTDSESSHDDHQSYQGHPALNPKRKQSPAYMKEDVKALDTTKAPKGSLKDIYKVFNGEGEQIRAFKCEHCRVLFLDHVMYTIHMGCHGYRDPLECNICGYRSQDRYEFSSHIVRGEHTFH
T1 sequence (Q96SW2 whole entry): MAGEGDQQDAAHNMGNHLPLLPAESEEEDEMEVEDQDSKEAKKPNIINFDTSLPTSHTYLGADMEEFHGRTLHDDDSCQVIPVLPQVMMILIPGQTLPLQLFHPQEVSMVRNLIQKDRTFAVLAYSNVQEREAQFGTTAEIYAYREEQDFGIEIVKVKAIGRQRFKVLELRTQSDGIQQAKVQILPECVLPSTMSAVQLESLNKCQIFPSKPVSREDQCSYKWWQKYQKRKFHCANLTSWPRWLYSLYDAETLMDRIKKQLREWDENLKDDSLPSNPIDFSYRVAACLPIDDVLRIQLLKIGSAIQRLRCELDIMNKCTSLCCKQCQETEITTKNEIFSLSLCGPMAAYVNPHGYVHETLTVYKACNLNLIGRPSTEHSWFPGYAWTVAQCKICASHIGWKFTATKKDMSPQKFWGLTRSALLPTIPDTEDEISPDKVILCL
T1 sequence (Q16531 whole entry partner): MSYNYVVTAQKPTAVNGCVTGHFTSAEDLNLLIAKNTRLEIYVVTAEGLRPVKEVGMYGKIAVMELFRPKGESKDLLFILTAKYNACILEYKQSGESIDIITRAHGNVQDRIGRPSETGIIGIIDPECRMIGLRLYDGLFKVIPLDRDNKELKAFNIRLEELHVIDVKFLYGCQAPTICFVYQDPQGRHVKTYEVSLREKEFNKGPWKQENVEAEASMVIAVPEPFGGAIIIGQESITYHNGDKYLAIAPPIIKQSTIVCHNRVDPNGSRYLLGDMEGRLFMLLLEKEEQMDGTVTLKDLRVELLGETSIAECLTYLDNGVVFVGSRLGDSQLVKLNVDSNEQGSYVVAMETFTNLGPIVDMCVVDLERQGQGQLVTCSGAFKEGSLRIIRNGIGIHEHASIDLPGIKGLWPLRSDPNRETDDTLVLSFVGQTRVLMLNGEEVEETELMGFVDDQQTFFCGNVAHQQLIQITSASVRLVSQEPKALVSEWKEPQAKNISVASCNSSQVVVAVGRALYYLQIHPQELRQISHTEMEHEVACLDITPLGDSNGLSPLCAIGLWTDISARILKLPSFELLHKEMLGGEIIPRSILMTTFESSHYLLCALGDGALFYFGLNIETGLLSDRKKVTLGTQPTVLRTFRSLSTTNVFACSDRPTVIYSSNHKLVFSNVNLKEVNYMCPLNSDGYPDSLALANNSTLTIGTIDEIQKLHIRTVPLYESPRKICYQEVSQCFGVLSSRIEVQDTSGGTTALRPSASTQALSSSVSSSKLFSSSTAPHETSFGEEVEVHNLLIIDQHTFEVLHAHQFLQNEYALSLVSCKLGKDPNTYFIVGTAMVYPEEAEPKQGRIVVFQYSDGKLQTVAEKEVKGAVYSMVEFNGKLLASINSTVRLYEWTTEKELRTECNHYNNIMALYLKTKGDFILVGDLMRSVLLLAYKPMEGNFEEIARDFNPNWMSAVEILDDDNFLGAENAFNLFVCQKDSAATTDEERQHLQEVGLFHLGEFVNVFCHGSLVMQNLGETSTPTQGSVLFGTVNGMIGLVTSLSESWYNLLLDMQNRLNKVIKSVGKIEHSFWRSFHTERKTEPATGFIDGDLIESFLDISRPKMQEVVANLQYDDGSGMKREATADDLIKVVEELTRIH
T2 sequence (Q96SW2 whole entry partner): as the sequence (Q96SW2 whole entry) above
T2 sequence (Q16531 whole entry partner): as the sequence (Q16531 whole entry partner) above
T2 sequence (P48729 whole entry G40N): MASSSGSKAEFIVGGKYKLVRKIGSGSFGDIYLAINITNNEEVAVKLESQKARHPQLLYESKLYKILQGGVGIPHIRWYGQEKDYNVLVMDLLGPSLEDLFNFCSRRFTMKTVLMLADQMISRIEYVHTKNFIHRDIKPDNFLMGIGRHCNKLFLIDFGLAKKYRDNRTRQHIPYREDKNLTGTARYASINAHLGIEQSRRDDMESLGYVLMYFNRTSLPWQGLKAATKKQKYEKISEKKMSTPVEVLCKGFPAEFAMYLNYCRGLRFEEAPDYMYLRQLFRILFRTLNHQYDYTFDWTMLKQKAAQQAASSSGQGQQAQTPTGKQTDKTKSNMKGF

Take `O=C1CCC(N2Cc3cc(Nc4noc5ccccc45)ccc3C2=O)C(=O)N1` (stereo not shown) [SJ3149]: the IKZF2 level reduction on IKZF2 (MOLM-13, 10 μM, 4 h) is recorded as ~ 40%. The “IKZF2 western blot quantification” value was 1.093 and 0.9655 and 0.8978 on IKZF2 (SJ3149 0.001 uM, relative to DMSO); 0.8205 and 1.143 and 0.8035 at IKZF2 (SJ3149 0.01 uM, relative to DMSO); 0.5925 and 0.7587 and 0.8297 on IKZF2 (SJ3149 0.1 uM, relative to DMSO); 0.5412 and 0.7758 and 0.64 at IKZF2 (SJ3149 1 uM, relative to DMSO); 0.4999 and 0.6664 and 0.6326 at IKZF2 (SJ3149 10 uM, relative to DMSO). Further, at IKZF2 (setting [1]), the “Bottom (sigmoidal 4PL fit) of IKZF2 protein level” value is recorded as 0.61. Moreover, on IKZF2 (setting [1]), the “Top (sigmoidal 4PL fit) of IKZF2 protein level” value was found to be 1.002. The compound also registered a solubility at 18 h in the data set “Aqueous solubility assay” of 36 µM (≈ 13.5 µg/mL). Besides, at CK1α G40N, the “Degradation of G40N mutant CK1α protein” value is “resistance of the G40N mutant protein to SJ3149 mediated degradation”.
